Target: T1, IRAK4 (Homo sapiens, UniProt Q9NWZ3)
T1 construct: endogenous in cells; host or cells: THP-1 cells
T1 sequence (Q9NWZ3 1-460): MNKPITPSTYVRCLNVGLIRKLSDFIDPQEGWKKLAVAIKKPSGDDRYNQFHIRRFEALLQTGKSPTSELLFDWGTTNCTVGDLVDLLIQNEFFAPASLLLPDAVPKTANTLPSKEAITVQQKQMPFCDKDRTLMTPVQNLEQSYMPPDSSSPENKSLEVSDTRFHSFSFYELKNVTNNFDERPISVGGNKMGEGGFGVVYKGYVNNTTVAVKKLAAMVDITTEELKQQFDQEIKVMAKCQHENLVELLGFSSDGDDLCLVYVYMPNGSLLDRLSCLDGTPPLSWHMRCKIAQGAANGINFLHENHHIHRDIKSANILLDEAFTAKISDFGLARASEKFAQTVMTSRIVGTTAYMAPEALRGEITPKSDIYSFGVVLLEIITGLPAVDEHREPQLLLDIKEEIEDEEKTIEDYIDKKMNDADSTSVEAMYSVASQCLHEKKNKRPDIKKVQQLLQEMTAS
Experiment: LVL THP1 HTRF (THP1 Homogeneous Time Resolved Fluorescence)
Assay type: cell-based
Settings: THP1 cells, 18 h incubation with compound; for DC50: read-out: LVL THP1 HTRF EC50
Summary of the method: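 IRAK4 HTRF read-out (665/615 nm ratio, anti-IRAK4 d2 acceptor and K donor, 18 h dark incubation at room temperature) on lysates of THP-1 cells. Cells were treated 18 h at 37° C. with 20 nL compound in DMSO, in colorless RPMI with 10% FBS, with a duplicate CTG plate.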

Row | Compound | LVL THP1 HTRF YMIN [%] | DC50 [nM]
1 | O=C1CCC(N2C(=O)c3ccc(NCCCNC(=O)C4CCC(NC(=O)c5cnc(Nc6ccc7ncsc7c6)cc5NC5CCCC5)CC4)cc3C2=O)C(=O)N1 (centres unmarked) [P-1] | 33.3 | 148
2 | CC(F)(F)CNc1cc(-n2ncc3cc(C#N)cnc32)ncc1-n1cc(C2CCC(CCN3CCN(c4ccc(C5CCC(=O)NC5=O)cc4)CC3)CC2)nn1 (centres unmarked) [P-169] | 3.0 | –
3 | CC(F)(F)CNc1cc(-n2ncc3cc(C#N)cnc32)ncc1-n1cc([C@H]2CC[C@H](CCN3CCN(c4ccc(C5CCC(=O)NC5=O)cc4)CC3)CC2)nn1 (some centres unmarked) [P-169] | – | 26
4 | Cc1cc(C2CCC(=O)NC2=O)ccc1N1CCN(CC[C@H]2CC[C@H](NC(=O)c3cnc(-n4ncc5cc(C#N)c(N)nc54)cc3N[C@H](C)C#N)CC2)C[C@H]1C (some centres unmarked) [P-170] | 0.9 | 14
5 | Cc1cc(N2CCN(CC[C@H]3CC[C@H](NC(=O)c4cnc(-n5ncc6cc(C#N)c(N)nc65)cc4N[C@H](C)C#N)CC3)C[C@H]2C)ccc1C1CCC(=O)NC1=O (some centres unmarked) [P-171] | 1.2 | 23
6 | Cc1cc(N2CCN(CC[C@H]3CC[C@H](NC(=O)c4cnc(-n5ncc6cc(C#N)c(N)nc65)cc4N[C@H](C)C#N)CC3)C[C@H]2C)ccc1C1CCC(=O)NC1=O (some centres unmarked) [P-172] | 1.1 | 10
7 | C[C@H](C#N)Nc1cc(-n2ncc3cc(C#N)c(N)nc32)ncc1C(=O)N[C@H]1CC[C@H](CCN2CCN(c3ccc(C4CCC(=O)NC4=O)c(F)c3)[C@H](C)C2)CC1 (some centres unmarked) [P-173] | 0.7 | 11
8 | C[C@H](C#N)Nc1cc(-n2ncc3cc(C#N)cnc32)ncc1C(=O)N[C@H]1CC[C@H](CCN2CC3CC2CN3c2ccc(C3CCC(=O)NC3=O)cc2)CC1 (some centres unmarked) [P-179] | 2.0 | 65
9 | COc1nc2c(cnn2-c2cc(N[C@H](C)C#N)c(C(=O)N[C@H]3CC[C@H](CCN4CCN(c5ccc(C6CCC(=O)NC6=O)cc5)CC4)CC3)cn2)cc1C#N (some centres unmarked) [P-184] | 1.3 | 51
10 | CC(F)(F)CNc1cc(-n2ncc3cc(C#N)c(N)nc32)ncc1C(=O)N[C@H]1CC[C@H](CCN2CCN(c3ccc(C4CCC(=O)NC4=O)cc3)CC2)CC1 (some centres unmarked) [P-185] | 1.5 | 17
11 | C[C@H](C#N)Nc1cc(-n2ncc3cc(C#N)c(N)nc32)ncc1C(=O)N[C@H]1CC[C@H](CCN2CCN(c3ccc(C4CCC(=O)NC4=O)c(Cl)c3)[C@H](C)C2)CC1 (some centres unmarked) [P-187] | 1.4 | 20
12 | CNc1nc2c(cnn2-c2cc(N[C@H](C)C#N)c(C(=O)N[C@H]3CC[C@H](CCN4CCN(c5ccc(C6CCC(=O)NC6=O)cc5)CC4)CC3)cn2)cc1C#N (some centres unmarked) [P-188] | 1.1 | 6
13 | C[C@H](C#N)Nc1cc(-n2ncc3cc(C#N)cnc32)ncc1C(=O)N[C@H]1CC[C@H](CCN2C3COCC2CN(c2ccc(C4CCC(=O)NC4=O)cc2)C3)CC1 (some centres unmarked) [P-189] | 25.3 | 54
14 | C[C@H](C#N)Nc1cc(-n2ncc3cc(C#N)cnc32)ncc1C(=O)N[C@H]1CC[C@H](CCN2CCN(c3ccc(C4CCC(=O)NC4=O)cc3)C3(COC3)C2)CC1 (some centres unmarked) [P-190] | 24.9 | 158
15 | C[C@H](C#N)Nc1cc(-n2ncc3cc(C#N)cnc32)ncc1C(=O)N[C@H]1CC[C@H](CCN2CCN(c3ccc(C4CCC(=O)NC4=O)cc3)C3(CC3)C2)CC1 (some centres unmarked) [P-191] | 20.4 | 1790

More lines, now with the values ahead:

Row | LVL THP1 HTRF YMIN [%] | DC50 [nM] | Compound
16 | 5.0 | 70 | Cc1cc(N2CC[C@H]3[C@@H]2CCN3CC[C@H]2CC[C@H](c3cn(-c4cnc(-n5ncc6cc(C#N)cnc65)cc4N[C@H](C)C#N)nn3)CC2)ccc1N1CCC(=O)NC1=O (single isomer, unassigned) [P-474]
17 | 17.1 | 161 | C[C@H](C#N)Nc1cc(-n2ncc3cc(C#N)cnc32)ncc1-n1cc([C@H]2CC[C@H](CCN3CC[C@H]4[C@@H]3CCN4c3ccc(N4CCC(=O)NC4=O)c(Cl)c3)CC2)nn1 (single isomer, unassigned) [P-478]
18 | 0.8 | 26 | C[C@H](C#N)Nc1cc(-n2ncc3cc(C#N)cnc32)ncc1-n1cc([C@H]2CC[C@H](CCN3CC[C@H]4[C@@H]3CCN4c3ccc(N4CCC(=O)NC4=O)c(F)c3)CC2)nn1 (single isomer, unassigned) [P-480]
19 | 2.7 | 8 | C[C@H](C#N)Nc1cc(-n2ncc3cc(C#N)c(N)nc32)ncc1-n1cc([C@H]2CC[C@H](CCN3CC[C@H]4[C@@H]3CCN4c3ccc([C@@]4(C)CCC(=O)NC4=O)cc3)CC2)nn1 (single isomer, unassigned) [P-487]
20 | 41.7 | 4440 | C[C@H](C#N)Nc1cc(-n2ncc3cc(C#N)cnc32)ncc1C(=O)N[C@H]1CC[C@@H](CCN2CC[C@H]3[C@@H]2CCN3c2ccc(N3CCC(=O)NC3=O)c(Cl)c2)CC1 (single isomer, unassigned) [P-488]
21 | 14.9 | 156 | C[C@H](C#N)Nc1cc(-n2ncc3cc(C#N)cnc32)ncc1-n1cc([C@H]2CC[C@H](CCN3CCC(c4ccc(N5CCC(=O)NC5=O)cc4)C3)CC2)nn1 (single isomer, unassigned) [P-491]
22 | −0.2 | 35 | C[C@H](C#N)Nc1cc(-n2ncc3cc(C#N)cnc32)ncc1C(=O)N[C@H]1CC[C@H](CCN2CC[C@H]3[C@@H]2CCN3c2ccc([C@@]3(C)CCC(=O)NC3=O)cc2)CC1 (single isomer, unassigned) [P-492]
23 | 21.2 | 110 | C[C@H](C#N)Nc1cc(-n2ncc3cc(C#N)cnc32)ncc1-n1cc([C@H]2CC[C@H](CCN3CC[C@H]4[C@@H]3CN4c3ccc(N4CCC(=O)NC4=O)cc3)CC2)nn1 (single isomer, unassigned) [P-494]
24 | 2.7 | 110 | C[C@H](C#N)Nc1cc(-n2ncc3cc(C#N)cnc32)ncc1-n1cc([C@H]2CC[C@H](CCN3CC[C@@H]4[C@H]3CN4c3ccc(N4CCC(=O)NC4=O)cc3)CC2)nn1 (single isomer, unassigned) [P-495]
25 | 13.6 | 239 | C[C@H](C#N)Nc1cc(-n2ncc3cc(C#N)cnc32)ncc1-n1cc([C@H]2CC[C@H](CCN3CCC(c4ccc(N5CCC(=O)NC5=O)cc4)C3)CC2)nn1 (single isomer, unassigned) [P-497]
26 | −0.52 | 43.4 | C[C@H](C#N)Nc1cc(Nc2ncc(C#N)cc2Cl)ncc1-n1cc([C@H]2CC[C@H](CCN3CC[C@H]4[C@@H]3CCN4c3ccc(N4CCC(=O)NC4=O)cc3)CC2)nn1 (single isomer, unassigned) [P-500]
27 | 82.16 | 1000 | C[C@H](C#N)Nc1cc(Nc2ncc(C#N)cc2Cl)ncc1-n1cc([C@H]2CC[C@H](CCN3CCN(c4ccc(N5CCC(=O)NC5=O)cc4)[C@@H]4COC[C@@H]43)CC2)nn1 (single isomer, unassigned) [P-503]
28 | 9.83 | 197 | C[C@H](C#N)Nc1cc(-n2ncc3cc(C#N)cnc32)ncc1-n1cc(C2CCC(CCN3CCN(c4ccc(N5CCC(=O)NC5=O)cc4)[C@@H]4CCC[C@@H]43)CC2)nn1 (single isomer, unassigned) [P-505]
29 | 65.39 | 1000 | C[C@H](C#N)Nc1cc(Nc2ncc(C#N)cc2Cl)ncc1-n1cc([C@H]2CC[C@H](CCN3CCN(c4ccc(N5CCC(=O)NC5=O)cc4)[C@@H]4CCC[C@@H]43)CC2)nn1 (single isomer, unassigned) [P-506]
30 | −1.72 | 62.8 | C[C@H](C#N)Nc1cc(Nc2ncc(C#N)cc2F)ncc1-n1cc([C@H]2CC[C@H](CCN3CC[C@H]4[C@@H]3CCN4c3ccc(N4CCC(=O)NC4=O)cc3)CC2)nn1 (single isomer, unassigned) [P-507]
31 | 5.2 | 8 | C[C@H](C#N)Nc1cc(-n2ncc3ccc(N4C[C@H]5C[C@@H]4CO5)nc32)ncc1-n1cc([C@H]2CC[C@H](CCN3CCC(c4ccc([C@@]5(F)CCC(=O)NC5=O)cc4)CC3)CC2)nn1 (single isomer, unassigned) [P-513]
32 | 7.6 | 17 | C[C@H](C#N)Nc1cc(-n2ncc3cc(C#N)c(N)nc32)ncc1-n1cc([C@H]2CC[C@H](CCN3CCN(c4ccc([C@@]5(C)CCC(=O)NC5=O)cc4)[C@H](C)C3)CC2)nn1 (stereo in doubt) [P-260]
33 | 1.3 | 3.6 | C[C@H](C#N)Nc1cc(-n2ncc3cc(C#N)cnc32)ncc1-n1cc([C@H]2CC[C@H](CCN3CCC(c4ccc([C@@]5(C)CCC(=O)NC5=O)cc4)C(F)C3)CC2)nn1 (stereo in doubt) [P-310]
34 | 3.5 | 8.7 | CC[C@H](C#N)Nc1cc(-n2ncc3cc(C#N)cnc32)ncc1-n1cc([C@H]2CC[C@H](CCN3CCN(c4ccc(C5CCC(=O)NC5=O)cc4)CC3)CC2)nn1 (stereo in doubt) [P-392]
35 | 3.1 | 4.8 | N#Cc1cnc2c(cnn2-c2cc(N[C@@H]3CCOC3)c(-n3cc([C@H]4CC[C@H](CCN5CCN(c6ccc(C7CCC(=O)NC7=O)cc6)CC5)CC4)nn3)cn2)c1 (stereo in doubt) [P-405]

Reference: patent publication US20240109881A1, “Heteroaryl Compounds as Ligand Directed Degraders of IRAK4” (Bristol-Myers Squibb Company, priority 2022, published 2024)
